Laboratory results from patent US6013802A, “Fluorescent conjugates of metal-chelating nitrogen heterocycles” (Molecular Probes, Inc., priority 1997, dated 2000).

Assay: Fluorescent detection of Cu2+ in seawater (high salt)
Settings: 1 μM dye in seawater; zero to 10 μM added Cu2+ (CuCl2)
Description: The metal-ion indicators of the present invention can be used to detect low levels of target ions in the presence of very high concentrations of other mono- and divalent cations. For example, a solution of a green fluorescent phenanthroline derivative (as described in Example 1) is diluted into freshly collected, unfiltered seawater to give a dye concentration of 1 μM. Using 10 mM EGTA, pH 7.20, 100 mM KCL in 10 mM MOPS as a standard, the fluorescence emission of the indicator solution is scanned from 450 nm to 650 nm in a Perkin Elmer PE-450 fluorimeter with excitation at 488 nm.

fluorescence emission remaining, of original emission intensity, after added Cu^2+: approximately 10%
SMILES: O=C1OC2(c3ccc(O)cc3Oc3cc(O)ccc32)c2ccc(NC(=S)Nc3cc4cccnc4c4ncccc34)cc21
